Results taken from paper PMC2790557 (Biochemistry, 2009).

Target: CK2 (casein kinase II)

For `OC[C@H]1O[C@@H](n2cnc3cc(Cl)c(Cl)cc32)[C@H](O)[C@@H]1O` [DRB, 5,6-Dichloro-1-(β-D-ribofuranosyl)benzimidazole], the IC50 was ~10 µM.
